# Test results from patent US7579432B2, “Cyclic peptides as G-protein-coupled receptor antagonists” (Promics Pty Limited, priority 2001, dated 2009).
# Experiments:
# [1] = Plasma levels after topical dermal administration; format: in vivo, rat; details: dermal application, 50 mg/kg, DMSO/distilled H2O or PG/H2O
# Description: Female and male Wistar rats (200-250 g) were anaesthetized with 1 mL of zoletil (50 mg/kg) and xylazine (10 mg/kg; Lyppard, Australia), which was injected intraperitoneally. An area of 5×10 cm was shaved and marked on the lower abdominal area of the rat, on to which the dose of drug was applied. A stock solution containing 10 mg/ml of C5a antagonist was dissolved in solvents propylene glycol or dimethylsulfoxide at varying concentrations with water and smeared evenly on the shaved abdominal area of the rat with a spatula. A heating pad was used to maintain the body temperature of the rats and blood samoles were taken at 15 min intervals for the first hour, and after that at 1 hr intervals for a total period or 3 hours.
# Blood samples were immediately added to tubes containing heparin (500 Units/μL) and centrifuged (11000×g). […] The fluid portions of the samples were placed in 1 mL Eppendorf tubes and stored until analysed.
# These samples were transferred to 96 well plates and evaporated to dryness using a GeneVac centrifugal evaporator, then reconstituted in the wells with mobile phase (20 μL) Analysis of samples was performed by liquid chromatography (LCMS) using an Agilent 1100 series HPLC equipped with a well plate autosampler coupled with a PE Sciex Qstar Pulsar ESI-TOF mass spectrometer. Concentrations were determined from a standard curve of drug:internal standard peak area ratios. […]
# gut ischemia-reperfusion = experiment: Intestinal ischemia-reperfusion injury in rats
# Description: Female Wistar rats (250-300 g, n=132) were fasted and given only water for 12 h prior to all experiments. Animals were anaesthetised by the intraperitoneal injection of 80 mg kg^−1 ketamine and 10 mg kg^−1 xylazine and throughout the procedure rats were placed on a heating pad to maintain normal body temperature. […] A non-traumatic occlusive device for the artery was fashioned from a silk suture looped though a length of polyethylene tubing. The SMA was occluded by applying traction to the ends of the loop. […] (1) in 5% ethanol or sterile, pyrogen-free saline in 0-2 ml volume. Infusions were made over a 2 min period. […] (1) (0.3, 1, 10 mg kg^−1) was achieved by gavage (0.2 ml saline in 25% ethanol) 60 min prior to SMA occlusion. Intestinal ischemia was induced by clamping the SMA for 30 min, after which the occlusive suture was removed, then reperfusion was monitored for another 120 min. Sham-operated rats were treated in an identical fashion, with the omission of vascular occlusion, and were infused with 0.2 ml of sterile, pyrogen-free saline or gavaged with 0.2 ml of saline in 25% ethanol. Blood samples (50 μL) were collected into heparinised Eppendorf tubes at regular intervals over the 180 min duration of the experiments for the estimation of PMN numbers. In a different series of identical experiments, whole blood was collected at regular intervals over the 180 min and allowed to clot on ice, and serum or plasma samples collected and stored at −20° C. for later measurement of tumour necrosis factor-α (TNF-α), haptoglobin (Hp) and aspartate aminotransferase (AST) concentrations. At the end of the 120 min reperfusion period, the animals were euthanased with an overdose of pentobarbital A section of the occluded ileum was removed, the lumen rinsed with saline, and the intestine was blotted dry, then weighed. Specimens were dried in an oven for 24 hours at 80° C. to obtain the tissue dry weight. Intestinal oedema was determined by assessing the wet and dry tissue weight ratio. Additionally, segments of both ischaemic and normal intestine were harvested and rinsed with saline and immediately fixed in 10% buffered formaldehyde-saline for histological studies.
# Blood (50 μL) for PMN counts was placed into heparinised tubes and then layered over an equal volume of Histopaque 1083 (Sigma, U.S.A.), PMNs were isolated and cell number counted on a haemocytometer. Concentrations of PMN's values are presented as mean percentage±SEM of the values obtained immediately prior to SMA occlusion.
# Serum TNF-α concentrations were measured using an enzyme-linked immunosorbent assay, (OptEIA, Pharmingen, USA), according to the manufacturers instructions. Concentrations of TNF-α in serum samples were determined by linear regression analysis from the standard curve.
# Plasma AST (AST/GOT; Sigma, USA) concentrations were measured according to manufacturers instructions within 48 h of collecting plasma. Plasma AST concentrations were derived from calibration curve. Results are expressed in Sigma-Franke (SF) units/ml.
# Specimens were fixed in 10% formaldehyde-saline, embedded in paraffin wax, sectioned serially, and stained with haematoxylin and eosin. Tissues were read and scored by a trained observer in a blinded fashion. The degree of intestinal tissue injury was determined using a previously described graded scale ranging from 0-8 (Chiu et al., 1970).
# [2] = system: antigen-induced arthritis; experiment: Rat monoarticular antigen-induced arthritis; format: in vivo
# Description: Female Wistar rats (150-250 g) were obtained from the Central Animal Breeding House, University of Queensland. […] Each rat received a subcutaneous injection of this suspension (0.5 mL) on days 1 and 7. On day 12-28, rats were separated into separate cages, and body weight and food and water intake monitored daily. Rats received either ordinary tap water or drinking water containing AcF-[OPdChaWR] (1). […] Rats were euthanased on day 28, and whole blood collected into an Eppendorf tube and allowed to clot on ice. Blood samples were centrifuges (11,000 rpm×3 min) and serum collected and stored at −20° C. until analysis of serum cytokines using an ELISA. Each knee capsule was lavaged with 100 μL saline, and the total cell count determined using a haemocytometer. In addition, an aliquot of the knee joint lavage fluid was dropped onto a glass slide, and allowed to air dry. Once dry, cells were stained with a differential stain (Diff Quick) and a differential cell count was performed using a 40× dry lens microscope. The remaining lavage fluids from each joint were stored at −20° C. until later analysis of intra-articular cytokine levels using an ELISA. Each knee joint was removed and the skin was split with a scalpel blade to allow fixation. Knee samples were stored in 10% buffered formalin for≧10 d. Knees were then rinsed with distilled water and placed in a saturated solution of EDTA solution for 21 d for decalcification before being embedded in paraffin wax. Knee tissue samples were prepared using standard histological techniques as described above in Example 6 and stained using an heamotoxylin and eosin stain. Histological slides were analysed in a blinded fashion. […] In no samples was there evidence of significant bone erosion. Samples of serum and synovial fluid were thawed on the day of ELISA analysis for TNFα and IL-6 levels. Concentrations were determined from a standard curve, using an ELISA as described previously in Example 6.
smiles,measurement,setting,value
"CC(=O)N[C@@H](Cc1ccccc1)C(=O)N[C@H]1CCCNC(=O)[C@H](CCCNC(=N)N)NC(=O)[C@H](Cc2c[nH]c3ccccc23)NC(=O)[C@@H](CC2CCCCC2)NC(=O)[C@@H]2CCCN2C1=O [Compound 1, Ac-Phe-[Orn-Pro-dCha-Trp-Arg]]",appearance of the C5a antagonist in the circulating plasma,[1],≤ 15 min
same,persistence of significant plasma levels,[1],at least 4 hr
same,ischemia-reperfusion induced neutropenia,gut ischemia-reperfusion; 1 mg/kg i.v. and 10 mg/kg p.o.,significantly inhibited
same,gut ischemia-reperfusion induced plasma aspartate aminotransferase,"gut ischemia-reperfusion; 1 mg/kg i.v. and 1,10 mg/kg",significantly reduced
same,gut ischemia-reperfusion induced tissue damage (histopathology),"gut ischemia-reperfusion; 1 mg/kg i.v. and 1,10 mg/kg",significantly reduced
same,increase in serum haptoglobin levels,"gut ischemia-reperfusion; 1 mg/kg i.v. and 1,10 mg/kg p.o.",significantly inhibited
same,change in serum TNF-α levels,gut ischemia-reperfusion; 1 mg/kg i.v. and 1-10 mg/kg p.o.,completely inhibited
same,ischemia-reperfusion induced neutropenia,gut ischemia-reperfusion; 1 mg/kg p.o.,no inhibition
same,arthritic right knee joint swelling,[2]; given orally on Days −2 to +14,inhibition
same,right knee joint IL-6 levels in joint lavage,[2]; oral,inhibition
same,right knee joint TNF-α levels in joint lavage,[2]; oral,inhibition
